Laboratory results reported in PMC8187357 (Communications Biology, 2021).
“And” between values parts separate entries of the source, which are not always exact repeats. Identical values can stand only once.

Key:
PD-L2 = target: T1, PD-L2 (Mus musculus, UniProt Q9WUL5); experiment: Rescue of IFN-γ release inhibited by PD-L2, mouse splenocytes; assay type: cell-based; details: mean ± S.D.; n=2; read-out: Mouse Splenocyte IFN-γ Rescue EC50 PD-L2
T1 construct: purchased R&D Systems 1022-PL-100
Experimental: (§1) The ability of peptides, peptidomimetics, and small molecules were analyzed for their ability to rescue T-cell proliferation or IFN-γ release from the inhibitory activity of PD-L1 or PD-L2 in a splenocyte/PBMC-based functional assay as per the protocols reported in publication. […] For all in vitro assays, test agent stock was prepared in water and diluted further in the assay media to achieve test concentrations. Each experimental condition was carried out in triplicates. Percent rescue for a given test compound concentration was calculated by normalizing individual percent test agent proliferation or IFN-γ release values to percent anti-CD3 and anti-CD28 antibodies stimulated proliferation or IFN-γ release. EC50 values were derived by plotting transformed data into non-linear fit in sigmoidal dose–response curve using GraphPad Prism software (Version 7).

PD-L1 [1] = target: T2, PD-L1 (Macaca fascicularis, UniProt G7PSE7); experiment: Rescue of proliferation inhibited by PD-L1, monkey PBMC; assay type: cell-based; details: n=1
Experimental: as §1

PD-L1 [2] = target: T2, PD-L1; experiment: Rescue of IFN-γ release inhibited by PD-L1, monkey PBMC; assay type: cell-based; details: n=1
Experimental: as §1

VISTA = target: T3, VISTA (Homo sapiens, UniProt Q9H7M9); experiment: VISTA functional assay (IFN-γ release, human PBMC); assay type: cell-based; details: for IFNγ Rescue (%): inhibited by VISTA; for IFNγ Rescue (%) / IFN-γ: replicates; for IFN-γ: human PBMCs + anti-CD3/anti-CD28 + VISTA 2.5 µg/mL
T3 construct: purchased R&D systems 126-B7
Experimental: The ability of CA-170 to rescue VISTA-mediated inhibition of IFN-γ release from anti-CD3/CD28-stimulated human PBMC was used to monitor the effect of CA-170 on VISTA functionality. Briefly, 96-well cell culture plates were pre-coated with recombinant human VISTA (2.5 µg/mL) and anti- human CD3 (2.5 µg/mL) overnight at 4 °C. Anti-human VISTA and isotype control antibodies were either coated along with the VISTA or incubated for 30 min next day before addition of cells. On the next day, plates were incubated with CA-170 for 30 min at different concentrations. Isolated PBMC (0.1 × 10^6 cells/well) and anti-human CD28 antibodies (1 µg/mL) were added to the wells. The culture was further incubated for 72 h at 37 °C with 5% CO2. After 72 h of incubation the cell culture supernatants were collected after brief centrifugation at 200 g x 5 min at 4 °C and processed for human IFN-γ measurement by ELISA following manufacturer’s protocol (R&D Systems; DY-285). Percent rescue of IFN-γ release was calculated by normalizing individual percent test agent IFN-γ release values to percent anti-CD3 and anti-CD28 antibodies stimulated IFN-γ release. EC50 values were derived by plotting transformed data into non-linear fit in sigmoidal dose–response curve using GraphPad Prism software (Version 7).

[3] = tested on: B7.1-CD28 co-stimulatory pathway; experiment: CD28-B7.1 functional assay (IL-2, Jurkat T cells); assay type: cell-based, human; details: for IL2: Jurkat + PHA 5 µg/mL + B7.1 1 µg/mL, replicates
Experimental: Impact of CA-170 on immunostimulatory interaction was examined in a Jurkat T-cell-based assay in which the ability of B7-1 to induce production of IL-2 was monitored upon stimulation with PHA. Briefly, Jurkat T cells (0.25 × 10^5 cells/well of a 96-well plate) grown and starved in serum-free RPMI1640 media for 2 h were stimulated with PHA (5 µg/mL) and B7.1 (1.0 µg/mL) and different concentrations of CA-170 and cultured for 48 h at 37 °C. After indicated time of incubation, culture supernatant was analyzed for IL-2 by ELISA. Anti-CD28 antibody and isotypes were used as controls.

parental CHO-K1 cells = experiment: Cellular NMR (T2), parental CHO-K1 cells; assay type: binding; details: cell-based NMR; no measurable PD-L1 expression
[4] = Tolerability in the in vivo pharmacological studies (body weights, clinical signs); details: all in vivo pharmacological studies
CT26 tumor model = experiment: Tumor-infiltrating Tregs and CD8/FoxP3 ratio in CT26 model; assay type: in vivo, mouse
Description: Supplementary Figure 2: Effect of CA-170 alone and in combination with CTX on CD8/FoxP3 […]
administration of CA-170 in CT26 tumor model, as observed by the measuring CD4+CD25+FoxP3+ cells. However, an increase in the number of infiltrating CD8+ T cells increased in CA-170 + CTX treated group, led to a favourable increase in the ratio of CD8+T cells […]
(1 picture or pasted object on this page, not shown here)

Cl-Channel = experiment: CEREP 80 panel binding: Cl-Channel; details: 10 µM
Experimental: (§2) CEREP 80 panel assay was carried out by Eurofins Cerep Panlabs facility at France. A series of binding assays was carried out to understand the off-target toxicity of CA-170. CA-170 was tested at 10 μM test concentration in duplicates. Compound binding was calculated as a % inhibition of the binding of a radioactively labeled ligand specific for each target. In each experiment the respective reference compound was tested concurrently with CA-170, and the data were compared with historical values determined at Eurofins. The experiment was accepted in accordance with Eurofins validation standard operating procedure. The results are expressed as a percent of control specific binding; (measured specific binding / control specific binding) × 100 and as a percent inhibition of control specific binding; 100−(measured specific binding / control specific binding) × 100 obtained in the presence of CA-170. The IC50 values (concentration causing a half-maximal inhibition of control specific binding) and Hill coefficients (nH) were determined by non-linear regression analysis of the competition curves generated with mean replicate values using Hill equation curve fitting.

Prostanoid EP4, IP, TP = experiment: CEREP 80 panel binding: Prostanoid; details: 10 µM
Experimental: as §2

NeuropeptideY Y1,Y2 = experiment: CEREP 80 panel binding: NeuropeptideY; details: 10 µM
Experimental: as §2

DOP, KOP, MOP, NOP = experiment: CEREP 80 panel binding: Opioid & Opioid like; details: 10 µM
Experimental: as §2

PACAP,VIP1 = experiment: CEREP 80 panel binding: VIP; details: 10 µM
Experimental: as §2

NeuropeptideY Y2 = target: T4, NeuropeptideY Y2 (Homo sapiens, UniProt P49146); experiment: Y2 assay, determination of IC50 (CEREP follow-up); assay type: binding
T4 construct: Eurofins Cerep Panlabs (contract laboratory)
Experimental: as §2
Opioid & Opioid like DOP, KOP, MOP, NOP ≤9
Nuclear receptors GR, PPARγ ≤7
Ion Channels Ca2+, Kv, Skca, […] 1
Amine transporters DA, NE, 5HT ≤1
25% effect at the highest validated testing concentration.

T3 sequence (Q9H7M9 with tags, fused parts or gaps limits assumed): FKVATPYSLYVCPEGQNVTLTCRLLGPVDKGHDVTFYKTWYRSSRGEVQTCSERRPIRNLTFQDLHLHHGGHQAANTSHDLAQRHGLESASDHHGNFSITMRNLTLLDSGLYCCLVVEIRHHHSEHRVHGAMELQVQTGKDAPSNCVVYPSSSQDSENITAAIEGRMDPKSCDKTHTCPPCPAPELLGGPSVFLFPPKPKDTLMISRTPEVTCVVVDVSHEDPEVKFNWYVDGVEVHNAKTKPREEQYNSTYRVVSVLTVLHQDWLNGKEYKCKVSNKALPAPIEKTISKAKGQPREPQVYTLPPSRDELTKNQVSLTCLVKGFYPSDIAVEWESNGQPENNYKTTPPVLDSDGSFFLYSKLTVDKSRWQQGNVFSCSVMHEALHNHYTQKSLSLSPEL
T2 sequence (G7PSE7 19-239): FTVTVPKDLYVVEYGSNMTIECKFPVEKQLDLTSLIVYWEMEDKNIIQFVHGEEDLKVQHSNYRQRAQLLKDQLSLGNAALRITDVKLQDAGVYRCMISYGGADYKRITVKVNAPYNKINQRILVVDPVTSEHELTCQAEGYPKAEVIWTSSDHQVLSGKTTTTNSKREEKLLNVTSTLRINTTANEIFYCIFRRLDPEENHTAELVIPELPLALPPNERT
T4 sequence (P49146 whole entry): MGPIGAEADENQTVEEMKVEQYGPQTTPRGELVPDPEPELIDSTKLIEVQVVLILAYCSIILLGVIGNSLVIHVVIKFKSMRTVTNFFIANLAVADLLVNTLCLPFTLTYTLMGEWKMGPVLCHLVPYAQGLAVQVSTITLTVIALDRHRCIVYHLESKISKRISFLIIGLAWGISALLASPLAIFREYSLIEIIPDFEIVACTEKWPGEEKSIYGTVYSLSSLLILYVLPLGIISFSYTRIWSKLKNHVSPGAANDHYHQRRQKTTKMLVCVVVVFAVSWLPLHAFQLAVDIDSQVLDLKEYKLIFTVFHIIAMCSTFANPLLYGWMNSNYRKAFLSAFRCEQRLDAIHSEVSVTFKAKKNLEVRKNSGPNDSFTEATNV
T1 sequence (Q9WUL5 with tags, fused parts or gaps limits assumed): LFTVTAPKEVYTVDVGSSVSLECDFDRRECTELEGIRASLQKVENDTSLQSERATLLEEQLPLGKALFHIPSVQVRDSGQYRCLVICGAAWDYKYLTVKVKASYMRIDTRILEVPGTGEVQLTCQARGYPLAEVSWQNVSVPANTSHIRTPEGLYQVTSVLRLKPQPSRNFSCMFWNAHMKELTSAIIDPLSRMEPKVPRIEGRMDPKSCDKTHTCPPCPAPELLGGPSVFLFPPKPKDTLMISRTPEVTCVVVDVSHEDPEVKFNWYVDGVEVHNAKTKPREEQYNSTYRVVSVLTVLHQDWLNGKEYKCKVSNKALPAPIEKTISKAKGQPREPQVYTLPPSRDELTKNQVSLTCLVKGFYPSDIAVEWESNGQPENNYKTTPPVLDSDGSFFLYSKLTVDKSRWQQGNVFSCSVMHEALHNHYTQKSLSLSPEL

Structure (SMILES): C[C@@H](O)[C@H](NC(=O)N[C@@H](CC(N)=O)c1nc([C@@H](N)CO)no1)C(=O)O [CA-170]
- EC50 (PD-L2): 78.3 nM
- EC50 (PD-L1 [1]): 34 nM
- EC50 (PD-L1 [2]): 97.8 nM
- IFNγ Rescue (%) (VISTA; 1.95 nM): -2.58% and 0.00% and 0.36%
- IFNγ Rescue (%) (VISTA; 3.91 nM): -0.86% and 0.32% and 1.09%
- IFNγ Rescue (%) (VISTA; 7.81 nM): 5.58% and 4.87% and 6.18%
- IFNγ Rescue (%) (VISTA; 15.63 nM): 21.46% and 16.88% and 19.64%
- IFN-γ (VISTA; 31.25 nM): 1018 pg/mL and 1268 pg/mL and 1298 pg/mL
- IFNγ Rescue (%) (VISTA; 31.25 nM): 36.91% and 37.66% and 42.55%
- IFNγ Rescue (%) (VISTA; 62.50 nM): 48.07% and 36.69% and 46.91%
- IFNγ Rescue (%) (VISTA; 250.00 nM): 107.73% and 72.73% and 91.64%
- IFN-γ (VISTA; 500 nM): 2498 pg/mL and 2438 pg/mL and 2828 pg/mL
- IFNγ Rescue (%) (VISTA; 500.00 nM): 100.43% and 75.65% and 98.18%
- rescue of IFNγ release inhibited by recombinant VISTA (in words) (VISTA; human PBMCs stimulated with anti-CD3 and anti-CD28): rescued IFNγ release
- EC50 (VISTA; mean ± S.D., n=4, read-out: Human PBMC IFN-γ Rescue EC50 VISTA): 82.9 nM
- IL2 ([3]; 10 nM): 70.45 pg/mL and 63.796 pg/mL and 63.436 pg/mL
- IL2 ([3]; 100 nM): 83.976 pg/mL and 80.412 pg/mL and 77.892 pg/mL
- IL2 ([3]; 1000 nM): 83.364 pg/mL and 84.022 pg/mL and 79.85 pg/mL
- inhibition of B7-1-mediated IL-2 secretion (in words) ([3]; Jurkat cells stimulated with PHA + human B7-1): did not inhibit IL-2 secretion
- binding to parental CHO-K1 cells (in words) (parental CHO-K1 cells): lack of binding
- tolerability (body weights, clinical signs; in words) [4]: well tolerated
- levels of tumor-infiltrating Tregs (CD4+CD25+FoxP3+ cells; in words) (CT26 tumor model; CA-170): No significant change
- ratio of CD8+T cells to Tregs (in words) (CT26 tumor model; CA-170 + CTX): increased significantly
- % Inhibition of Control Specific Binding (Cl-Channel): 2%
- % Inhibition of Control Specific Binding (Prostanoid EP4, IP, TP): ≤ 5%
- % Inhibition of Control Specific Binding (NeuropeptideY Y1,Y2): ≤ 78%
- % Inhibition of Control Specific Binding (DOP, KOP, MOP, NOP): ≤ 9%
- % Inhibition of Control Specific Binding (PACAP,VIP1): ≤ 9%
- EC50 value (Y2 assay taken for determination of IC50) (NeuropeptideY Y2; Y2): not calculable
- effect at the highest validated testing concentration (NeuropeptideY Y2; Y2 concentration-response curve): less than 25%
